Assay results as given in PMC10974995 (Pathogens, 2024).
≈ marks a conversion by molar mass, not a printed value. Read-outs that look alike come from different tables or passages of the source.

Key:
boar sperm [1] = system: boar sperm
[2] = system: PK-15 (porcine kidney epithelial cells) and/or FFL (feline fetus lung cells)
Rat = settings: po; cited from earlier work
Fish = settings: cited from earlier work
[3] = system: differentiated PK-15 cells
boar sperm [4] = experiment: cells
[5] = system: PK-15 (porcine kidney epithelial cells) and/or FFL (feline fetus lung cells); experiment: cells; settings: Sus scrofa
[6] = system: differentiated PK-15 cells; experiment: cells; settings: Sus scrofa, PK-15, read-out: Mitochondrial Toxicity 1d (EC50, acceleration of glycolysis and depolarization of mitochondria)
[7] = 72 h, read-out: EC50 Ex Vivo BSMI 1–3d
[8] = read-out: EC50 Ex Vivo BSMI, positive controls, mean of 10 or 11 measurements
[9] = PK-15, 48 h, read-out: EC50 In Vitro ICP 2d
[10] = PK-15, read-out: EC50 In Vitro ICP, positive controls, mean of 10 or 11 measurements

| Molecule | EC50 Ex Vivo BSMI 1–3d (boar sperm [1]) | Ex Vivo BSMI 1–3d, toxic (+) / nontoxic (−), microbial metabolites (boar sperm [1]; pig (boar)) | EC50 In Vitro ICP 2d [2] | In Vitro ICP 2d, toxic (+) / nontoxic (−), microbial metabolites [2] | In Vivo (toxicity to experimental animals), mycotoxins and fungal metabolites (Rat) | Toxicity In Vivo LD50 Rat p.o. (Rat) | EC50 (boar sperm [4]; [7]) [µg/mL] | EC50 [5, 9] [µg/mL] | also measured |
| --- | --- | --- | --- | --- | --- | --- | --- | --- | --- |
| COc1cc2c(c3oc4cccc(O)c4c(=O)c13)[C@@H]1C=CO[C@@H]1O2 [Sterigmatocystin] | (−)>20 μg mL^–1 | (−)>20 | (+) 0.1 μg mL^–1 | (+) 0.1 (key: (+): For the microbial metabolites, EC50 < 5 µg mL^−1 and <10 µg mL^−1 were considered as toxic in the BSMI and ICP assays, respectively; nontoxic as (−)) | + (key: LD50 rat p.o. <1000 mg kg ^–1 Classified as Toxic in vivo +.) |  |  |  |  |
| Polyethyleneglycol monalkyl ether [Genapol X 080] | (+) 3 μg mL^–1 |  | (−) 30 μg mL^–1 |  |  | >2000 mg/kg |  |  | In Vivo (toxicity to experimental animals), xenobiotic chemicals (Fish): + (key: LD50 Fish Inhaled <10 μg mL ^–1 = Toxic in vivo Marked as +.); Toxicity In Vivo LD50 Fish (Fish): 5 mg/L; Ex Vivo BSMI 1–3d, toxic (+) / nontoxic (−), xenobiotic chemicals (boar sperm [1]): (+) 3 (key: (+): For the xenobiotic chemicals, EC50 values < 10 µg mL^−1 and <20 µg mL^−1 were considered as toxic in the BSMI assay and in the ICP assay, respectively; nontoxic as (−)); In Vitro ICP 2d, toxic (+) / nontoxic (−), xenobiotic chemicals [2]: (−) 30; Mitochondrial Toxicity 1d (EC50, acceleration of glycolysis and depolarization of mitochondria) [3]: (+) 5 μg mL^–1; Mitochondrial toxicity after testing with somatic cells [3]: Mitochondrial toxicity was recorded |
| Polyethyleneglycol-p-is-octylphenyl ether [Triton X –100] | (+) 1 μg mL^–1 |  | (−) 30 μg mL^–1 |  |  | 500 mg/kg |  |  | In Vivo (toxicity to experimental animals), xenobiotic chemicals (Fish): + (key: LD50 Fish Inhaled <10 μg mL ^–1 = Toxic in vivo Marked as +.); Toxicity In Vivo LD50 Fish (Fish): 5 mg/L; Ex Vivo BSMI 1–3d, toxic (+) / nontoxic (−), xenobiotic chemicals (boar sperm [1]): (+) 1 (key: (+): For the xenobiotic chemicals, EC50 values < 10 µg mL^−1 and <20 µg mL^−1 were considered as toxic in the BSMI assay and in the ICP assay, respectively; nontoxic as (−)); In Vitro ICP 2d, toxic (+) / nontoxic (−), xenobiotic chemicals [2]: (−) 30 |
| CCCCCCCCCCCCOS(=O)(=O)[O-].[Na+] [SDS, Sodium dodecyl sulfate] | (+) 10 μg mL^–1 |  | (−) 120 μg mL^–1 |  |  | 1288 mg/kg |  |  | In Vivo (toxicity to experimental animals), xenobiotic chemicals (Fish): + (key: LD50 Fish Inhaled <10 μg mL ^–1 = Toxic in vivo Marked as +.); Toxicity In Vivo LD50 Fish (Fish): 30 mg/L; Ex Vivo BSMI 1–3d, toxic (+) / nontoxic (−), xenobiotic chemicals (boar sperm [1]): (+) 10 (key: (+): For the xenobiotic chemicals, EC50 values < 10 µg mL^−1 and <20 µg mL^−1 were considered as toxic in the BSMI assay and in the ICP assay, respectively; nontoxic as (−)); In Vitro ICP 2d, toxic (+) / nontoxic (−), xenobiotic chemicals [2]: (−) 120 |
| CC1(C)C=Cc2c(ccc3c2[N+]([O-])=C2C(C)(C)[C@@H]4CC56CCCN5C(=O)[C@]4(NC6=O)[C@H]4N5C(=O)[C@@]67CCCN6C(=O)[C@@]56[C@H](c5c(n(O)c8c9c(ccc58)OC(C)(C)C=C9)C(C)(C)[C@@H]6C7)[C@]234)O1 [Stephacidin B] | (+) 0.3 μg mL^–1 |  | (++) 0.3 μg mL^–1 |  |  |  |  |  | Ex Vivo BSMI 1–3d, toxic (+) / nontoxic (−), microbial metabolites (boar sperm [1]): (+) 0.3 (key: (+): For the microbial metabolites, EC50 < 5 µg mL^−1 and <10 µg mL^−1 were considered as toxic in the BSMI and ICP assays, respectively; nontoxic as (−)) |
| CC1=C2C(=CO[C@H](C)[C@H]2C)C(O)=C(C(=O)O)C1=O [Citrinin] |  | (−) 20 |  | (+) 10 (key: (+): For the microbial metabolites, EC50 < 5 µg mL^−1 and <10 µg mL^−1 were considered as toxic in the BSMI and ICP assays, respectively; nontoxic as (−)) | + (key: LD50 rat p.o. <1000 mg kg ^–1 Classified as Toxic in vivo +.) | 105 mg/kg | 20 (≈ 79.9 µM) | 10 (≈ 40 µM) | EC50 (boar sperm [4]; [8]): ≥ 20 µg/mL; EC50 [5, 10]: 13 µg/mL (≈ 51.9 µM) |
| CC(C)[C@@H]1NC(=O)[C@H](C)OC(=O)[C@@H](C(C)C)NC(=O)[C@@H](C(C)C)OC(=O)[C@H](C(C)C)NC(=O)[C@H](C)OC(=O)[C@@H](C(C)C)NC(=O)[C@@H](C(C)C)OC(=O)[C@H](C(C)C)NC(=O)[C@H](C)OC(=O)[C@@H](C(C)C)NC(=O)[C@@H](C(C)C)OC1=O [Valinomycin] |  |  |  |  |  | 4 mg/kg |  |  |  |
| Acrebol | (+) 0.1 μg mL^–1 |  | (−) >10 μg mL^–1 | (−) >10 |  |  |  |  | Ex Vivo BSMI 1–3d, toxic (+) / nontoxic (−), microbial metabolites (boar sperm [1]): (+) 0.1 (key: (+): For the microbial metabolites, EC50 < 5 µg mL^−1 and <10 µg mL^−1 were considered as toxic in the BSMI and ICP assays, respectively; nontoxic as (−)); Mitochondrial Toxicity 1d (EC50, acceleration of glycolysis and depolarization of mitochondria) [3]: (+) 0.1 μg mL^–1 |
| Cc1cc(O)c2c(c1)C(=O)c1cc(O)cc(O)c1C2=O [Emodin] |  | (+) 4 (key: (+): For the microbial metabolites, EC50 < 5 µg mL^−1 and <10 µg mL^−1 were considered as toxic in the BSMI and ICP assays, respectively; nontoxic as (−)) |  | (−) 45 |  | 1000 mg/kg | 4 (≈ 14.8 µM) | 45 (≈ 167 µM) | EC50 [6]: 3 µg/mL (≈ 11.1 µM) |
| C/C1=C\[C@@H](C)C/C=C/[C@H]2[C@@H]3O[C@]3(C)[C@@H](C)[C@H]3[C@H](Cc4c[nH]c5ccccc45)NC(=O)[C@]32C(=O)/C=C/C(=O)[C@@H]1O [Chaetoglobosin A] |  | (+) <1 (key: (+): For the microbial metabolites, EC50 < 5 µg mL^−1 and <10 µg mL^−1 were considered as toxic in the BSMI and ICP assays, respectively; nontoxic as (−)) |  | (+) 3 (key: (+): For the microbial metabolites, EC50 < 5 µg mL^−1 and <10 µg mL^−1 were considered as toxic in the BSMI and ICP assays, respectively; nontoxic as (−)) | + (key: LD50 rat p.o. <1000 mg kg ^–1 Classified as Toxic in vivo +.) | >400 mg/kg | < 1 | 3 (≈ 5.67 µM) |  |
| CC(C)=C[C@H]1C[C@H](C)[C@]2(CC[C@]3(C)C[C@H]4[C@H](C(=O)C[C@@]4(C)O)/C(C=O)=C\C[C@H]32)O1 [Ophiobolin, Ophiobolin A] |  | (+) 0.3 (key: (+): For the microbial metabolites, EC50 < 5 µg mL^−1 and <10 µg mL^−1 were considered as toxic in the BSMI and ICP assays, respectively; nontoxic as (−)) |  | (+) 0.1 (key: (+): For the microbial metabolites, EC50 < 5 µg mL^−1 and <10 µg mL^−1 were considered as toxic in the BSMI and ICP assays, respectively; nontoxic as (−)) | + (key: LD50 rat p.o. <1000 mg kg ^–1 Classified as Toxic in vivo +.) | 238 mg/kg | 0.3 (≈ 0.749 µM) | 0.1 (≈ 0.25 µM) |  |
| CC(C)[C@H]1C(=O)O[C@H](C(C)C)C(=O)N(C)[C@@H](C(C)C)C(=O)O[C@H](C(C)C)C(=O)N(C)[C@@H](C(C)C)C(=O)O[C@H](C(C)C)C(=O)N1C [Enniatin B] |  | (+) 0.5 (key: (+): For the microbial metabolites, EC50 < 5 µg mL^−1 and <10 µg mL^−1 were considered as toxic in the BSMI and ICP assays, respectively; nontoxic as (−)) |  | (−) 15 | + (key: LD50 rat p.o. <1000 mg kg ^–1 Classified as Toxic in vivo +.) | 350 mg/kg | 0.5 (≈ 0.781 µM) | 15 (≈ 23.4 µM) | EC50 (boar sperm [4]; [8]): 0.6 µg/mL (≈ 0.938 µM); EC50 [6]: 2 µg/mL (≈ 3.13 µM); EC50 [5, 10]: 18 µg/mL (≈ 28.1 µM) |
| CC1(C)C=Cc2c(ccc3c2[N+]([O-])=C2C3=C[C@@]34NC(=O)[C@]5(CCCN5C3=O)C[C@H]4C2(C)C)O1 [Avrainvillamide] |  | (+) 0.2 (key: (+): For the microbial metabolites, EC50 < 5 µg mL^−1 and <10 µg mL^−1 were considered as toxic in the BSMI and ICP assays, respectively; nontoxic as (−)) |  | (+) 0.2 (key: (+): For the microbial metabolites, EC50 < 5 µg mL^−1 and <10 µg mL^−1 were considered as toxic in the BSMI and ICP assays, respectively; nontoxic as (−)) |  |  | 0.2 (≈ 0.449 µM) | 0.2 (≈ 0.449 µM) |  |
| Polyethylene glycol sorbitan mono oleate [Tween 80] | (+) 10 μg mL^–1 |  |  |  |  | >25,000 mg kg^−1 |  |  | In Vivo (toxicity to experimental animals), xenobiotic chemicals (Fish): −; Ex Vivo BSMI 1–3d, toxic (+) / nontoxic (−), xenobiotic chemicals (boar sperm [1]): (+) 10 (key: (+): For the xenobiotic chemicals, EC50 values < 10 µg mL^−1 and <20 µg mL^−1 were considered as toxic in the BSMI assay and in the ICP assay, respectively; nontoxic as (−)); Response in the BSMI assay (boar sperm [1]): weak positive response; In Vitro ICP 2d, toxic (+) / nontoxic (−), xenobiotic chemicals [2]: (−) 500 |
| O=c1cc(O)c1=O [Moniliformin] | (+) 2 μg mL^–1 |  | (−) >20 μg mL^–1 | (−) >20 | + (key: LD50 rat p.o. <1000 mg kg ^–1 Classified as Toxic in vivo +.) | 50 mg/kg |  |  | Ex Vivo BSMI 1–3d, toxic (+) / nontoxic (−), microbial metabolites (boar sperm [1]): (+) 2 (key: (+): For the microbial metabolites, EC50 < 5 µg mL^−1 and <10 µg mL^−1 were considered as toxic in the BSMI and ICP assays, respectively; nontoxic as (−)); Mitochondrial Toxicity 1d (EC50, acceleration of glycolysis and depolarization of mitochondria) [3]: (+) 2 μg mL^–1 |
